Source: ChEMBL document CHEMBL1201862, “PubChem BioAssay data set” (2004)
Activity calls are given as the source filed them.

What was measured:
[1] = cytotoxicity in HPDE-C7 cells, cell-based, fluorescence, HTS (AID 430); format: functional; conditions: Homo sapiens
[2] = cytotoxicity in KRAS-transformed pancreatic duct cells, primary screen, cell-based, fluorescence, HTS (AID 431); format: functional; conditions: Homo sapiens;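 further: cell line used: HPDE-C7K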
[3] = biological target: T1, Polyadenylate-binding protein 1 (Homo sapiens, UniProt P11940); assay: PABP1 MLLE–PAM2 binding inhibitor potency, dose response, biochemical, fluorescence polarization, FITC-PAM2 peptide (AID 602259); format: functional; conditions: read-out: IC50_Mean
[4] = biological target: T2, Estrogen receptor beta (Homo sapiens, UniProt Q92731);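 further: recombinant ER-beta bound to coactivator SRC1 peptide in presence of estradiol agonist; inhibitors block coactivator peptide binding and lower the FRET signal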
T2 sequence (Q92731 whole entry): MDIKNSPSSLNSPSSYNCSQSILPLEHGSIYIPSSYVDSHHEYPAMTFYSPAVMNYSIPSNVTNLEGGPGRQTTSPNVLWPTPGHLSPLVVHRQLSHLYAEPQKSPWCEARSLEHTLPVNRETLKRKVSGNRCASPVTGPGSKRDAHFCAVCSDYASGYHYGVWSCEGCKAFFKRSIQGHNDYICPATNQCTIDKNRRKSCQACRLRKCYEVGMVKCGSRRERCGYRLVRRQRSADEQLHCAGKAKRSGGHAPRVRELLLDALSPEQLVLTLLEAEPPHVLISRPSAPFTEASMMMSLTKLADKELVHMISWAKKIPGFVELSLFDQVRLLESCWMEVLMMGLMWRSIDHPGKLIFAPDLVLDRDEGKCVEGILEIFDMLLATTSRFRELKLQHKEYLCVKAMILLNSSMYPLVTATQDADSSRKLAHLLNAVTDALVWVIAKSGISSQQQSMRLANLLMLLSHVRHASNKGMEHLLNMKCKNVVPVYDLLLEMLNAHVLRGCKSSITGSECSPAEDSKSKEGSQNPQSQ

[5] = biological target: T1, Polyadenylate-binding protein 1; assay: PABP1 MLLE–PAM2 interaction inhibitors, dose response, miRNA deadenylation inhibitor project, biochemical, fluorescence polarization, Cy5-PAM2 peptide, secondary (AID 602260); format: functional; conditions: read-out: IC50_Mean
[6] = biological target: T2, Estrogen receptor beta; assay: ERβ–SRC-3 coactivator interaction inhibitors, confirmation, orthogonal assay, biochemical, ELISA, streptavidin-HRP readout (AID 1060)
[7] = biological target: Peroxisome proliferator-activated receptor gamma/Nuclear receptor coactivator 1 (Homo sapiens, UniProt P37231); assay: TR-FRET dose response biochemical High Throughput Screening assay for agonists of the steroid receptor coactivator 1 (SRC-1) recruitment by the peroxisome proliferator-activated receptor gamma (PPAR gamma): non-selective agonists. [Related pubchem assays (depositor defined):AID1300, AID1808, AID504735, AID631]; format: protein assay
Peroxisome proliferator-activated receptor gamma/Nuclear receptor coactivator 1, sequence (P37231 whole entry): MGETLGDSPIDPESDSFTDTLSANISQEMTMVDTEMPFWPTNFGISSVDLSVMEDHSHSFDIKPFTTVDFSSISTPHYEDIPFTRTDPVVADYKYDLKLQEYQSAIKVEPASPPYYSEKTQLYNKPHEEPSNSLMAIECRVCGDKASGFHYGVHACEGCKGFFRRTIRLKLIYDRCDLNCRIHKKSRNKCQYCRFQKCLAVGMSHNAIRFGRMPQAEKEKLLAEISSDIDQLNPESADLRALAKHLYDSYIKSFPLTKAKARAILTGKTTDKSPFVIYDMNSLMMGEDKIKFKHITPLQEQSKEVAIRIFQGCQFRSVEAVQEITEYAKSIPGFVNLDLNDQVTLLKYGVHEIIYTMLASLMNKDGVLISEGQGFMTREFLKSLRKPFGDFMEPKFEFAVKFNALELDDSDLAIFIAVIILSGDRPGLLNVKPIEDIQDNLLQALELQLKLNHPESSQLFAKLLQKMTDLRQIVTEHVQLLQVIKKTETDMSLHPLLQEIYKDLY
Peroxisome proliferator-activated receptor gamma/Nuclear receptor coactivator 1, sequence (Q15788 whole entry, further chain): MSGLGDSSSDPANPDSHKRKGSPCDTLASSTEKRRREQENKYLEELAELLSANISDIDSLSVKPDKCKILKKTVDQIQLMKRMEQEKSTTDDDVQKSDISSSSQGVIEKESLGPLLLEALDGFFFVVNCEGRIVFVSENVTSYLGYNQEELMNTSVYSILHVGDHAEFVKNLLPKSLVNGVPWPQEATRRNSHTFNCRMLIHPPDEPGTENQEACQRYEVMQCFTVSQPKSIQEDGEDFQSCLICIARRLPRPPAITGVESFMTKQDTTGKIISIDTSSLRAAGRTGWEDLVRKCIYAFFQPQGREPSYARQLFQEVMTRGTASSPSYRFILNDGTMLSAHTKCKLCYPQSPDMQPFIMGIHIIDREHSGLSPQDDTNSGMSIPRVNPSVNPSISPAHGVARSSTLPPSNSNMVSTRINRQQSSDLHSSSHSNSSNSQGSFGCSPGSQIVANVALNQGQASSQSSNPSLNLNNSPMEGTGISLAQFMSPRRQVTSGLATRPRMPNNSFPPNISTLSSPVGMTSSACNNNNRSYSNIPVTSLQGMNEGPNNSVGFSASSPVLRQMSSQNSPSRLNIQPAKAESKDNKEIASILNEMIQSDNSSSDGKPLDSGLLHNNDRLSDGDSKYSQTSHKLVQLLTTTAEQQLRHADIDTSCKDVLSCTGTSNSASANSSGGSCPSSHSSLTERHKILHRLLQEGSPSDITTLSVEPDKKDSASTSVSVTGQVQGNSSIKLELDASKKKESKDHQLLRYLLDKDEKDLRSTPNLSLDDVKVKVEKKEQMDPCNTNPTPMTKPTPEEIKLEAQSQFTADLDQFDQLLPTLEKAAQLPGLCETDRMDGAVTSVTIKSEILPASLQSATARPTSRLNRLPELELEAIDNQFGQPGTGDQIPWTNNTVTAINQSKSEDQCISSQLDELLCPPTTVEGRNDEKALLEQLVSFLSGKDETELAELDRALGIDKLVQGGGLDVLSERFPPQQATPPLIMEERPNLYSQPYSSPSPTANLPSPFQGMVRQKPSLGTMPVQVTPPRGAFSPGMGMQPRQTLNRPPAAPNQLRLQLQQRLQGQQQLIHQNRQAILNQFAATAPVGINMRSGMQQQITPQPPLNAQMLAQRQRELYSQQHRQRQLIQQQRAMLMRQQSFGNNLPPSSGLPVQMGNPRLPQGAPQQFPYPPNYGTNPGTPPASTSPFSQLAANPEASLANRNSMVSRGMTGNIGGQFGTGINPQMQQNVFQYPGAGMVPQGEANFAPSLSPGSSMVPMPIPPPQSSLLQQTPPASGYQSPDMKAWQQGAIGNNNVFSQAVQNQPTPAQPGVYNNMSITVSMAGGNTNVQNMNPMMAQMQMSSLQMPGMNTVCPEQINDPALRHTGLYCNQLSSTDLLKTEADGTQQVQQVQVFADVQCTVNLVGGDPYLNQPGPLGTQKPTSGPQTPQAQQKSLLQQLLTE

[8] = biological target: Peroxisome proliferator-activated receptor gamma/Nuclear receptor coactivator 3 (Homo sapiens, UniProt P37231); assay: TR-FRET dose response biochemical High Throughput Screening assay for agonists of the steroid receptor coactivator 3 (SRC-3) recruitment by the peroxisome proliferator-activated receptor gamma (PPAR gamma): non-selective agonists. [Related pubchem assays: 1301 (Confirmation screen.), 1048 (Primary screen.)]; format: functional
[9] = biological target: Peroxisome proliferator-activated receptor gamma/Nuclear receptor coactivator 2 (Homo sapiens, UniProt P37231); assay: TR-FRET dose response biochemical High Throughput Screening assay for agonists of the steroid receptor coactivator 2 (SRC-2) recruitment by the peroxisome proliferator-activated receptor gamma (PPAR gamma): non-selective agonists. [Related pubchem assays: 1297, 1032 ]; format: functional
Peroxisome proliferator-activated receptor gamma/Nuclear receptor coactivator 2, sequence (P37231 whole entry): as the sequence (P37231 whole entry) above
Peroxisome proliferator-activated receptor gamma/Nuclear receptor coactivator 2, sequence (Q15596 whole entry, further chain): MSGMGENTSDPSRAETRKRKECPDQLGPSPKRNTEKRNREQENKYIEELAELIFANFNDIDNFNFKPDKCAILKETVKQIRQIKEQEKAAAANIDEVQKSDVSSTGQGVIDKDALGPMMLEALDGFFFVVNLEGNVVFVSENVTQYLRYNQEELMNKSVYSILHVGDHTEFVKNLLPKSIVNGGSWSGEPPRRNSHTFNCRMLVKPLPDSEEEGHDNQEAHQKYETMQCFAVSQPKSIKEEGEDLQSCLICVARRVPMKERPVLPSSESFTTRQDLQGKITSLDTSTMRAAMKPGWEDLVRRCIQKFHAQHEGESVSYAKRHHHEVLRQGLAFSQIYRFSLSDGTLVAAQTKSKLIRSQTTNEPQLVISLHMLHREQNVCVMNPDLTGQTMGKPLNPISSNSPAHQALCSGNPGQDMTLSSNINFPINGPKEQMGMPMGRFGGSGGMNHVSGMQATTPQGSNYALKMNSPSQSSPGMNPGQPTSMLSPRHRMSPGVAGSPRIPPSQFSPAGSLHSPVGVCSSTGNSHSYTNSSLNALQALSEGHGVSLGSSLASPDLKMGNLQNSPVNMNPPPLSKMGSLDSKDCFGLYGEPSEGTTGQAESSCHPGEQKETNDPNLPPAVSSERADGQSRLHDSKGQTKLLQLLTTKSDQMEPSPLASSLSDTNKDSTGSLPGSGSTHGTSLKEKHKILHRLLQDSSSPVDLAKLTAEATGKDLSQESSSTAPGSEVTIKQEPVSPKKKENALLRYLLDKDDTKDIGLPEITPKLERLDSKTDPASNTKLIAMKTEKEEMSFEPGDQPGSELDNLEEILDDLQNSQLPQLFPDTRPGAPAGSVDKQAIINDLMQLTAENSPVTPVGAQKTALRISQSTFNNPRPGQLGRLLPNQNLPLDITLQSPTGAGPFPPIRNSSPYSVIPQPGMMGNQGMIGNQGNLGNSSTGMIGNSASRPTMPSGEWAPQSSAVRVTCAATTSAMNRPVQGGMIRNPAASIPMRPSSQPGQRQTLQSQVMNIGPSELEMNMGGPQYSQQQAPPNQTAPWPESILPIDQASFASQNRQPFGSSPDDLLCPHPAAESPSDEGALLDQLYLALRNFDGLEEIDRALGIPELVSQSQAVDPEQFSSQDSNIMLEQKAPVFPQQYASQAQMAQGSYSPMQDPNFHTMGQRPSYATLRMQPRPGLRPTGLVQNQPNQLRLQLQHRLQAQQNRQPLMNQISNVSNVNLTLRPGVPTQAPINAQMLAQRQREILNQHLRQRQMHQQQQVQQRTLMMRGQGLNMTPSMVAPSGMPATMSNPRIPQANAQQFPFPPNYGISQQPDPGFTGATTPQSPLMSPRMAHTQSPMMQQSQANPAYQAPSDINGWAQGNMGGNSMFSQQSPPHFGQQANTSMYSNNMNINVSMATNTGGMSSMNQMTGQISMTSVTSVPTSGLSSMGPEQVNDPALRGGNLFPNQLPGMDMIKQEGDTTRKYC

[10] = cells
[11] = HEp-2 cell cytotoxicity, dose response, cytotoxicity control for RSV inhibitor project, HTS (AID 2410); format: functional; conditions: human respiratory syncytial virus
[12] = growth suppression of beta-catenin-knockout colon cells, dose response, cell-based, HCT116, human colon tumor (AID 1045); format: functional;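 further: HCT116 colon tumor cells with beta catenin knocked out; cells exposed to compound for 60 hours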
[13] = growth suppression of PTEN-null colon cells, dose response, cell-based, HCT116 PTEN knockout (AID 1047); format: functional;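 further: HCT116 colon tumor cells with PTEN knocked out; cells exposed to compound for 60 hours before readout; potency for loss of cell viability measured by luminescence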
[14] = tested on: H9c2; assay: cells; format: functional, cell-based; conditions: Rattus norvegicus, H9c2, Myocardium;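 further: confirmatory concentration-response retest of ultra-high-throughput screening hits for modulation of myocardial damage; cell death induced by hydrogen peroxide oxidative stress; compound pretreatment for 60 min then peroxide exposure for 2 h; potency is for protecting the cells against peroxide damage rather than for killing them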
[15] = biological target: T3, Zinc finger protein mex-5 (Caenorhabditis elegans, UniProt Q9XUB2); assay: MEX-5/TCR-2 RNA interaction inhibitors, dose response, biochemical, C. elegans, fluorescence polarization (AID 1960)
T3 sequence (Q9XUB2 whole entry): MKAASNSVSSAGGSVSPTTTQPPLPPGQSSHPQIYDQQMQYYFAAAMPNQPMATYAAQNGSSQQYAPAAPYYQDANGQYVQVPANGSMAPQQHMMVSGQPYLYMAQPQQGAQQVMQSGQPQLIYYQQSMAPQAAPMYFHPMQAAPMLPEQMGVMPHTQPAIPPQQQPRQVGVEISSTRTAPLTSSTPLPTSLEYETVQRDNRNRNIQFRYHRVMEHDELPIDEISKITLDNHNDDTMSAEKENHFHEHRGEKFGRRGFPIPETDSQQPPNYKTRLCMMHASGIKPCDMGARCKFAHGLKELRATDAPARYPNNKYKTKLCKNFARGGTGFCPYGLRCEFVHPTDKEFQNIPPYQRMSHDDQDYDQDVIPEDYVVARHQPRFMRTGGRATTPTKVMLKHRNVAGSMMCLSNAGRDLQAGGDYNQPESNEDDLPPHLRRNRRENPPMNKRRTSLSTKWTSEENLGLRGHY

[16] = biological target: Large T antigen (Simian virus 40, UniProt P03070); format: functional, Betapolyomavirus macacae;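 further: Confirmatory-stage PubChem screen for compounds that inhibit SV40 T antigen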
[17] = THP-1 cell cytotoxicity, dose response, cytotoxicity control for non-replicating M. tuberculosis project (AID 489025); format: functional
[18] = cells; format: functional
[19] = biological target: T4, RNA-binding protein pos-1 (Caenorhabditis elegans, UniProt G5EF15); assay: inhibitors of POS-1/mex-3 RNA binding, dose response, biochemical, fluorescence polarization (AID 1964);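 further: purified POS-1 fused to maltose binding protein made in E. coli; potency of compounds blocking POS-1 binding to fluorescent RNA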
T4 sequence (G5EF15 whole entry): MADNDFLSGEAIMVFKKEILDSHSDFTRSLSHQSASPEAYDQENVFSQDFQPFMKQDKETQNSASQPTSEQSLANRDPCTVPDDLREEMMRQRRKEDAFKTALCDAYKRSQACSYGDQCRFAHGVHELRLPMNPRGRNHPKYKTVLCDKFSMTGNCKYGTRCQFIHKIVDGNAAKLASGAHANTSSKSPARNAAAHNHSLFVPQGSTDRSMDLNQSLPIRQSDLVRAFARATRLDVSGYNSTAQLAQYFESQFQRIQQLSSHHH

[20] = biological target: Genome polyprotein (dengue virus type 2, UniProt P29990); assay: Dengue-2 NS5 methyltransferase inhibitors, primary screen, biochemical, confirmation dose response (AID 588689); format: functional
[21] = biological target: Glyceraldehyde-3-phosphate dehydrogenase (Homo sapiens, UniProt P04406)
Glyceraldehyde-3-phosphate dehydrogenase, sequence (P04406 whole entry): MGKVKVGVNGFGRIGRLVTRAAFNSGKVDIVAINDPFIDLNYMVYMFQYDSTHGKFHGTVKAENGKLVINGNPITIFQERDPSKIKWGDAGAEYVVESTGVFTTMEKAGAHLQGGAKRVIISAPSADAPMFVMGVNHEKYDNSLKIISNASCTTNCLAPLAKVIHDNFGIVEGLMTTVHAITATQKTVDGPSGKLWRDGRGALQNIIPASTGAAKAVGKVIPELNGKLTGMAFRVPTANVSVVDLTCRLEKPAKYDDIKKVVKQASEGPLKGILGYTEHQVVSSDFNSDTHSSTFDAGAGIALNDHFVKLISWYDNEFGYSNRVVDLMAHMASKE

[22] = biological target: T5, Short transient receptor potential channel 4 (Mus musculus, UniProt Q9QUQ5); assay: mouse TRPC4 channel inhibitors, dose response, cell-based, HEK293 TRPC4/mu-opioid, Fluo-4 calcium (AID 434942); format: functional;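 further: potency of inhibitors blocking the TRPC4 calcium response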
T5 sequence (Q9QUQ5 whole entry): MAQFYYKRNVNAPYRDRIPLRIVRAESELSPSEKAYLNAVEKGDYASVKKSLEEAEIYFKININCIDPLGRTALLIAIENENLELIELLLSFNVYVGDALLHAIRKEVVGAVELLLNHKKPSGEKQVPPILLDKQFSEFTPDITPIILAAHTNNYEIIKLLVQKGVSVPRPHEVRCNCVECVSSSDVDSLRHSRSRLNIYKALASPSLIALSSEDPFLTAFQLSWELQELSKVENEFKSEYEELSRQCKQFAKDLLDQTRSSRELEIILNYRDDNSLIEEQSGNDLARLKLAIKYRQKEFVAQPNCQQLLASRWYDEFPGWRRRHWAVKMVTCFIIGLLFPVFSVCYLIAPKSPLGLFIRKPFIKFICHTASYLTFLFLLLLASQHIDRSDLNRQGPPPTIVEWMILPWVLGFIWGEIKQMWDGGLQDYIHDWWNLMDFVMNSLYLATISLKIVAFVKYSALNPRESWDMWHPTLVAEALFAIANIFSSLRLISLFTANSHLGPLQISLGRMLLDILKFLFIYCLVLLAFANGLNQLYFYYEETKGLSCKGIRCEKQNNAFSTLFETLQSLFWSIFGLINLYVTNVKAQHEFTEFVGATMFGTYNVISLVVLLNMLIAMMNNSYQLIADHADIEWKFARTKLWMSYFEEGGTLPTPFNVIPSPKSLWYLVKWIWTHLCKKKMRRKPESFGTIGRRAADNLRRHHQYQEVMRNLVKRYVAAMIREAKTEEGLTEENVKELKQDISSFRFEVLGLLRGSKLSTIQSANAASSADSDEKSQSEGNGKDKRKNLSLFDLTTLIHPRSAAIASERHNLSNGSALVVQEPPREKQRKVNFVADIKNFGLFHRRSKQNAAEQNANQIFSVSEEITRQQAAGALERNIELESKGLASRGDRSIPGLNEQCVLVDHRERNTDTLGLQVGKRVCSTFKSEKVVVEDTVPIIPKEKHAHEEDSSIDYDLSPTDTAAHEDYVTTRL

[23] = inhibitors of intracellular T. cruzi replication, confirmation, NIH3T3 host cells, beta-gal luminescence (AID 2044); format: functional, cell-based;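 further: intracellular parasites grown in NIH/3T3 mouse fibroblasts as host cells; luminescent beta-galactosidase reporter signal from transgenic T. cruzi replicating inside host cells; inhibitors lower the luminescence signal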
[24] = cytotoxicity toward NIH3T3 fibroblasts, dose response, counter-screen, cell-based, ATP luminescence, mouse fibroblasts (AID 2010); format: functional;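 further: cells exposed to compound for about 90 hours before reading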
[25] = cells; remark: listed apart in the source
[26] = biological target: Induced myeloid leukemia cell differentiation protein Mcl-1 (Homo sapiens, UniProt Q07820); format: functional
[27] = biological target: T6, Estrogen receptor (Homo sapiens, UniProt P03372);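 further: potency for inhibiting coactivator peptide recruitment to the receptor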
T6 sequence (P03372 whole entry): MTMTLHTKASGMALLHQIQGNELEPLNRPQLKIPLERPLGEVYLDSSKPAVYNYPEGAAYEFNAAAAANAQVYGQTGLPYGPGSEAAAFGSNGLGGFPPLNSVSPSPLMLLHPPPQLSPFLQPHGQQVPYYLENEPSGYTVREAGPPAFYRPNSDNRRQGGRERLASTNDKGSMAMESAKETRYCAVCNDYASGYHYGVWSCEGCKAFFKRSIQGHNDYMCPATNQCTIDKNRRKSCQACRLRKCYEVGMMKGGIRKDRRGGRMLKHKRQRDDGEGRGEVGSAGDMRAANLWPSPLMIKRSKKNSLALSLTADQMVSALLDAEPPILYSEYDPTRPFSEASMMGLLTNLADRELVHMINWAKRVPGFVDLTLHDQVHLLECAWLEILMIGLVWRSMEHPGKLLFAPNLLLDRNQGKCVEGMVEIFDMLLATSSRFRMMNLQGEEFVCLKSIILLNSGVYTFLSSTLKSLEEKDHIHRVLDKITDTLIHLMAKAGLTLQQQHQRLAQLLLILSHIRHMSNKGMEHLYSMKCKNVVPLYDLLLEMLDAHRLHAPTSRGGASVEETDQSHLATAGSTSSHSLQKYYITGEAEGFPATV

[28] = biological target: FAD-linked sulfhydryl oxidase ALR (Homo sapiens, UniProt P55789); assay: inhibitors of human ALR sulfhydryl oxidase, dose response, biochemical, H2O2 detection, luminescence, cherry-pick (AID 493248)
FAD-linked sulfhydryl oxidase ALR, sequence (P55789 whole entry): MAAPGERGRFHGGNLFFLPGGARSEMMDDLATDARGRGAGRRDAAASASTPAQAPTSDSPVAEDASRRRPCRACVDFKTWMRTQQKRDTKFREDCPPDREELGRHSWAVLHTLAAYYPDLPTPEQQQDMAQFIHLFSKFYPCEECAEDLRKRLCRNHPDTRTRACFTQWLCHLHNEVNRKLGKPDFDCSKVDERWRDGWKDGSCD

SMILES: O=C(CCN1CCc2ccccc2C1)c1ccc2c(c1)OCCO2
- EC50 [1]: 9.07 µM (active)
- EC50 [2]: 11.5 µM (active)

SMILES: Nc1nc(-c2ccco2)c(-c2ccco2)s1
- IC50 [3]: > 66 µM (inactive)
- IC50 [4]: > 50 µM (not active)
- IC50 [5]: > 66 µM (inactive)
- IC50 [6]: 101 µM (not active)

SMILES: Cn1c(=O)cc(SCC(=O)NCc2cccnc2)c2ccccc21
- EC50 [7]: > 79.4 µM (inactive)
- EC50 [8]: > 79.4 µM (not active)
- EC50 [9]: > 79.4 µM (not active)

SMILES: O=[N+]([O-])c1cc(C(F)(F)F)ccc1N1CCC(O)CC1
- IC50 [10]: 19.8 µM (active)
- CC50 [11]: 47.2 µM (active)

SMILES: C=CCn1cnc2c(c1=O)c1nc3ccccc3nc1n2/N=C/c1cc(OC)c(OC)c(OC)c1
- EC50 [12]: 4.67 µM (active)
- EC50 [13]: 4.4 µM (active)
- EC50 [1]: 11.2 µM (active)
- EC50 [2]: 5.68 µM (active)
- IC50 [14]: > 79 µM (inactive)

SMILES: COc1cccc(N2C(=O)NC(=O)/C(=C/c3ccc([N+](=O)[O-])s3)C2=O)c1
- EC50 [15]: 27.2 µM (active)
- IC50 [16]: 47.3 µM (active)
- CC50 [17]: 37.1 µM (active)
- IC50 [18]: 27.6 µM (active)
- EC50 [19]: 34.4 µM (active)
- CC50 [11]: 13.8 µM (active)
- IC50 [20]: 38 µM (active)

SMILES: CN(C)C1=C(Cl)C(=O)N(c2cccc(C(F)(F)F)c2)C1=O
- IC50 [21]: > 50 µM (inconclusive)

SMILES: CCC(C(=O)Nc1nnc(-c2ccco2)s1)c1ccccc1 (configuration not stated)
- EC50 [7]: > 79.4 µM (inactive)
- EC50 [8]: > 79.4 µM (not active)
- EC50 [9]: 43.6 µM (not active)

SMILES: Cc1ccc(-n2c(S)nnc2-c2ccccc2)cc1
- EC50 [7]: 33.6 µM (inactive)
- EC50 [8]: > 79.4 µM (not active)
- EC50 [9]: 18.4 µM (not active)

SMILES: CN(CC1CCCN(CCc2cccc(C(F)(F)F)c2)C1)C(=O)c1cc2ccccc2o1 (configuration not stated)
- EC50 [22]: 0.668 µM (active)
- EC50 [23]: < 0.1 µM (active)
- EC50 [24]: 8.57 µM (active)
- EC50 [25]: 0.082 µM (active)

SMILES: Cc1ccc2nc(N(CCCN(C)C)C(=O)c3cc4ccccc4oc3=O)sc2c1
- EC50 [23]: < 0.1 µM (active)
- EC50 [24]: > 60 µM (not active)
- EC50 [25]: 0.116 µM (active)

SMILES: Cc1ccc(C2=NC(=O)/C(=C/C=C/c3ccc([N+](=O)[O-])o3)S2)cc1
- IC50 [21]: > 100 µM (not active)

SMILES: CC(C)(C)CC(=O)NC(=S)NCCc1ccccc1
- IC50 [10]: 18.4 µM (active)
- CC50 [11]: 39.4 µM (active)

SMILES: CCN(CC)c1nc2c3c(nc4c(c3c1C#N)CC(=O)N4c1ccc(Cl)cc1)NC(C)=N2
- IC50 [26]: 2.18 µM (active)

SMILES: CCOC(=O)Cc1cc(O)n2nc(-c3ccc(C)cc3)cc2n1
- IC50 [4]: 6.5 µM (active)
- IC50 [27]: 13.9 µM (active)
- IC50 [6]: 46.7 µM (not active)

SMILES: O=C(CN1CCN(c2ccc(O)cc2)CC1)Nc1cc([N+](=O)[O-])ccc1Cl
- IC50 [26]: 5.07 µM (active)
- AC50 [28]: 1.24 µM (active)

SMILES: O=C(CSc1nnc(SCC(=O)c2ccco2)s1)c1ccco1
- IC50 [4]: 6.51 µM (active)
- IC50 [27]: 21.2 µM (active)
- IC50 [6]: > 109 µM (not active)

SMILES: COC(=O)C1=C(C)N(Cc2ccccc2)C(=O)N[C@H]1c1cccc(C(F)(F)F)c1
- IC50 [10]: 8.17 µM (active)
- CC50 [11]: 32.9 µM (active)

SMILES: COc1cc(S(=O)(=O)Nc2cccnc2)c(OC)cc1Cl
- IC50 [21]: > 100 µM (not active)
